Reference: patent US20230029496A1, “AMINO ACID ALTERNATIVE CURING SYSTEM” (THE TEXAS A&M UNIVERSITY SYSTEM, priority 2019, published 2023)
Where “and” joins values, the source holds several entries; their conditions need not be identical. Identical values can stand only once. Like-named read-outs stand apart in the source and are kept apart here. Marks after values point to notes of the source that are not given here.

Experiments:
[1] = test system: NOS system; test: NO-heme, total heme, nitrosylation in test beef frankfurters (Example 12); conditions: 156 ppm sodium nitrite with sodium erythorbate 547 ppm
Protocol: (§1) The remaining nonmeat ingredients were added (except the antimicrobial) and chopped at 2000 rpm for one minute. Protecta (sodium acetate antimicrobial) was added and the emulsion chopped at 4000 rpm for one minute. The emulsion was evacuated and placed into a vacuum assisted stuffer where each test emulsion was stuffed and twist linked into 22 mm cellulose casings weighing 40 g each. The frankfurter links were hung on smokehouse trucks, placed into a commercial smokehouse and thermally processed to 160° F. (Table 18).
(§2) After thermal processing and chilling (40° F.), the casings were peeled from the frankfurters and were vacuum packaged and stored under refrigerated conditions for residual nitrite and nitrosylation. […] This was done to determine if the L-arginine could the NOS system to generate sufficient NO for cure color development and residual nitrite for antioxidant and antimicrobial effect.

[2] = 156 ppm sodium nitrite
Protocol: (§3) After thermal processing and chilling according to USDA-FSIS Appendix A—Thermal processing (71° C.) and B—Cooling procedures (2° C.) guidelines, the frankfurters will be vacuum packaged and stored under refrigeration (2° C.) until analyzed at 0, 14, 28 and 56 days post manufacture.
Cooked sample water activity was measured (in triplicate) using an Aqualab Model Series 3 water activity meter.
(§4) Samples were vacuum packaged and refrigerated and evaluated on Day 1, 7, 14, 28 and 56 post manufacture. Differences between treatment and control samples will be determined using Tukey's Least Significant Difference procedure at P≤0.05 level. The experiment was replicated three times.

[3] = test system: nitric oxide synthase system; conditions: 156 ppm sodium nitrite
Protocol: as §3
The samples were analyzed for residual nitrite after deproteinization by sample preparation for amino acid analysis by HPLC.
as §4

[4] = test system: nitric oxide synthase system; conditions: beef; for Residual Nitrite, LSMean main effect of Temperature: sodium nitrite
Protocol: (§5) Fresh ground meat (beef, pork or poultry) was separated in ˜0.5 Kg batches and mixed with 2% salt and 10% added water. […] Each individual batch was mixed (1 min) in a food processor, removed for temperature and pH analyses and then placed into a jerky extruder tube. Approximately 25 g of sample were extruded into 50 mL centrifuge, then capped and labeled and placed into a controlled water batch and heated to a designated internal endpoint temperature (132, 158, or 165° F.).
(§6) Samples also contained 547 ppm sodium erythorbate, a cure accelerator (Phase I) and without sodium erythorbate (Phase II). Samples were placed into test tubes and heated in a controlled water bath to 132, 158 and 165° F. Samples were held in a 40° F. cooler for seven days then tested for residual nitrite. Residual nitrite was tested after deproteinization for amino acid analysis by HPLC. Determination of nitrite (UV/VIS Spectrophotometric Method) was used to detect any residual nitrite for best results in detecting minute amounts of nitrite. Residual nitrite levels were read in a 96 well plate reader at 540 nm.
(§7) Both phases of the experiment were designed as a factorial (concentration level and endpoint temperature) randomized complete block design with three replications. […] Least squares means were generated and Tukey's HSD used to determine significance at P≤0.05.

[5] = test system: nitric oxide synthase system; conditions: pork; for Residual Nitrite, LSMean main effect of Temperature: sodium nitrite
Protocol: as §5, §6, §7

[6] = test system: nitric oxide synthase system; conditions: poultry; for Residual Nitrite, LSMean main effect of Temperature: sodium nitrite
Protocol: as §5, §6, §7

[7] = test system: NOS system; test: Residual nitrite in test beef frankfurters (Example 12); conditions: 156 ppm sodium nitrite with sodium erythorbate 547 ppm
Protocol: as §1, §2

[8] = Phase I, with 547 ppm sodium erythorbate, 120 ppm sodium nitrite
[9] = Phase I, with 547 ppm sodium erythorbate, 120 ppm sodium nitrite, 132° F.
[10] = Phase I, with 547 ppm sodium erythorbate, 120 ppm sodium nitrite, 158° F.
[11] = Phase I, with 547 ppm sodium erythorbate, 120 ppm sodium nitrite, 165° F.
[12] = Phase I, with 547 ppm sodium erythorbate, 156 ppm sodium nitrite
[13] = Phase I, with 547 ppm sodium erythorbate, 156 ppm sodium nitrite, 132° F.
[14] = Phase I, with 547 ppm sodium erythorbate, 156 ppm sodium nitrite, 158° F.
[15] = Phase I, with 547 ppm sodium erythorbate, 156 ppm sodium nitrite, 165° F.
[16] = Phase I, with 547 ppm sodium erythorbate, 200 ppm sodium nitrite
[17] = Phase I, with 547 ppm sodium erythorbate, 200 ppm sodium nitrite, 132° F.
[18] = Phase I, with 547 ppm sodium erythorbate, 200 ppm sodium nitrite, 158° F.
[19] = Phase I, with 547 ppm sodium erythorbate, 200 ppm sodium nitrite, 165° F.
[20] = Phase I, with 547 ppm sodium erythorbate, 132° F.
[21] = Phase I, with 547 ppm sodium erythorbate, 158° F.
[22] = Phase I, with 547 ppm sodium erythorbate, 165° F.
[23] = Phase II, without 547 ppm sodium erythorbate, 120 ppm sodium nitrite
[24] = Phase II, without 547 ppm sodium erythorbate, 120 ppm sodium nitrite, 132° F.
[25] = Phase II, without 547 ppm sodium erythorbate, 120 ppm sodium nitrite, 158° F.
[26] = Phase II, without 547 ppm sodium erythorbate, 120 ppm sodium nitrite, 165° F.
[27] = Phase II, without 547 ppm sodium erythorbate, 156 ppm sodium nitrite
[28] = Phase II, without 547 ppm sodium erythorbate, 156 ppm sodium nitrite, 132° F.
[29] = Phase II, without 547 ppm sodium erythorbate, 156 ppm sodium nitrite, 158° F.
[30] = Phase II, without 547 ppm sodium erythorbate, 156 ppm sodium nitrite, 165° F.
[31] = Phase II, without 547 ppm sodium erythorbate, 200 ppm sodium nitrite
[32] = Phase II, without 547 ppm sodium erythorbate, 200 ppm sodium nitrite, 132° F.
[33] = Phase II, without 547 ppm sodium erythorbate, 200 ppm sodium nitrite, 158° F.
[34] = Phase II, without 547 ppm sodium erythorbate, 200 ppm sodium nitrite, 165° F.
[35] = Phase II, without 547 ppm sodium erythorbate, 132° F.
[36] = Phase II, without 547 ppm sodium erythorbate, 158° F.
[37] = Phase II, without 547 ppm sodium erythorbate, 165° F.

SMILES: O=NO [Sodium Nitrite, Sodium nitrite, reference compound]
- NO-Heme [1]: 17.88^b ppm
- Nitrosylation [1]: 94.93^b %
- Total Heme [1]: 79.11^a ppm
- Nitrosylation ([1]; listed as sodium nitrite): 94.93%
- water activity (Aw) ([2]; Day 1): 0.979
- water activity (Aw) ([2]; Day 7): 0.979
- water activity (Aw) ([2]; Day 14): 0.972
- water activity (Aw) ([2]; Day 28): 0.978
- residual sodium nitrite ([3]; Day 1): 85.05
- residual sodium nitrite ([3]; Day 7): 74.53
- residual sodium nitrite ([3]; Day 14): 121.03
- residual sodium nitrite ([3]; Day 28): 73.73
- Residual Nitrite, LSMean main effect of Concentration [4, 8]: 75.33 ppm
- Residual Nitrite, LSMean Conc × Temp [4, 9]: 119.32^a ppm
- Residual Nitrite, LSMean Conc × Temp [4, 10]: 60.08^bc ppm
- Residual Nitrite, LSMean Conc × Temp [4, 11]: 46.59^c ppm
- Residual Nitrite, LSMean main effect of Concentration [4, 12]: 81.08 ppm
- Residual Nitrite, LSMean Conc × Temp [4, 13]: 107.54^ab ppm
- Residual Nitrite, LSMean Conc × Temp [4, 14]: 77.51^abc ppm
- Residual Nitrite, LSMean Conc × Temp [4, 15]: 58.18^bc ppm
- Residual Nitrite, LSMean main effect of Concentration [4, 16]: 72.05 ppm
- Residual Nitrite, LSMean Conc × Temp [4, 17]: 86.41^abc ppm
- Residual Nitrite, LSMean Conc × Temp [4, 18]: 47.02^c ppm
- Residual Nitrite, LSMean Conc × Temp [4, 19]: 82.73^ab ppm
- Residual Nitrite, LSMean main effect of Temperature [4, 20]: 104.42^a ppm and 104.42 ppm
- Residual Nitrite, LSMean main effect of Temperature [4, 21]: 61.54^b ppm and 61.54 ppm
- Residual Nitrite, LSMean main effect of Temperature [4, 22]: 62.50^b ppm and 62.50 ppm
- Residual Nitrite, LSMean main effect of Concentration [4, 23]: 182.18 ppm
- Residual Nitrite, LSMean Conc × Temp [4, 24]: 187.92 ppm
- Residual Nitrite, LSMean Conc × Temp [4, 25]: 204.95 ppm
- Residual Nitrite, LSMean Conc × Temp [4, 26]: 153.68 ppm
- Residual Nitrite, LSMean main effect of Concentration [4, 27]: 202.15 ppm
- Residual Nitrite, LSMean Conc × Temp [4, 28]: 199.54 ppm
- Residual Nitrite, LSMean Conc × Temp [4, 29]: 214.72 ppm
- Residual Nitrite, LSMean Conc × Temp [4, 30]: 192.19 ppm
- Residual Nitrite, LSMean main effect of Concentration [4, 31]: 196.51 ppm
- Residual Nitrite, LSMean Conc × Temp [4, 32]: 184.28 ppm
- Residual Nitrite, LSMean Conc × Temp [4, 33]: 202.30 ppm
- Residual Nitrite, LSMean Conc × Temp [4, 34]: 202.96 ppm
- Residual Nitrite, LSMean main effect of Temperature [4, 35]: 190.58 ppm
- Residual Nitrite, LSMean main effect of Temperature [4, 36]: 207.32 ppm
- Residual Nitrite, LSMean main effect of Temperature [4, 37]: 182.94 ppm
- Residual Nitrite, LSMean main effect of Concentration [5, 8]: 42.30^b ppm and 42.30 ppm
- Residual Nitrite, LSMean Conc × Temp [5, 9]: 58.68 ppm
- Residual Nitrite, LSMean Conc × Temp [5, 10]: 41.15 ppm
- Residual Nitrite, LSMean Conc × Temp [5, 11]: 27.07 ppm
- Residual Nitrite, LSMean main effect of Concentration [5, 12]: 62.37^a ppm and 62.37 ppm
- Residual Nitrite, LSMean Conc × Temp [5, 13]: 66.93 ppm
- Residual Nitrite, LSMean Conc × Temp [5, 14]: 46.37 ppm
- Residual Nitrite, LSMean Conc × Temp [5, 15]: 73.82 ppm
- Residual Nitrite, LSMean main effect of Concentration [5, 16]: 68.22^a ppm and 68.22 ppm
- Residual Nitrite, LSMean Conc × Temp [5, 17]: 63.47 ppm
- Residual Nitrite, LSMean Conc × Temp [5, 18]: 57.10 ppm
- Residual Nitrite, LSMean Conc × Temp [5, 19]: 84.08 ppm
- Residual Nitrite, LSMean main effect of Temperature [5, 20]: 63.03 ppm
- Residual Nitrite, LSMean main effect of Temperature [5, 21]: 48.21 ppm
- Residual Nitrite, LSMean main effect of Temperature [5, 22]: 61.66 ppm
- Residual Nitrite, LSMean main effect of Concentration [5, 23]: 214.53^a ppm and 214.53 ppm
- Residual Nitrite, LSMean Conc × Temp [5, 24]: 173.70^ab ppm
- Residual Nitrite, LSMean Conc × Temp [5, 25]: 178.90^ab ppm
- Residual Nitrite, LSMean Conc × Temp [5, 26]: 164.54^b ppm
- Residual Nitrite, LSMean main effect of Concentration [5, 27]: 183.17^b ppm and 183.17 ppm
- Residual Nitrite, LSMean Conc × Temp [5, 28]: 208.65^ab ppm
- Residual Nitrite, LSMean Conc × Temp [5, 29]: 166.20^b ppm
- Residual Nitrite, LSMean Conc × Temp [5, 30]: 174.67^ab ppm
- Residual Nitrite, LSMean main effect of Concentration [5, 31]: 172.38^b ppm and 172.38 ppm
- Residual Nitrite, LSMean Conc × Temp [5, 32]: 196.48^ab ppm
- Residual Nitrite, LSMean Conc × Temp [5, 33]: 232.01^a ppm
- Residual Nitrite, LSMean Conc × Temp [5, 34]: 215.08^ab ppm
- Residual Nitrite, LSMean main effect of Temperature [5, 35]: 192.61 ppm
- Residual Nitrite, LSMean main effect of Temperature [5, 36]: 186.00 ppm
- Residual Nitrite, LSMean main effect of Temperature [5, 37]: 185.85 ppm
- Residual Nitrite, LSMean main effect of Concentration [6, 8]: 64.56^b ppm and 64.56 ppm
- Residual Nitrite, LSMean Conc × Temp [6, 9]: 66.48 ppm
- Residual Nitrite, LSMean Conc × Temp [6, 10]: 68.47 ppm
- Residual Nitrite, LSMean Conc × Temp [6, 11]: 58.74 ppm
- Residual Nitrite, LSMean main effect of Concentration [6, 12]: 78.51^ab ppm and 78.51 ppm
- Residual Nitrite, LSMean Conc × Temp [6, 13]: 80.52 ppm
- Residual Nitrite, LSMean Conc × Temp [6, 14]: 85.36 ppm
- Residual Nitrite, LSMean Conc × Temp [6, 15]: 69.65 ppm
- Residual Nitrite, LSMean main effect of Concentration [6, 16]: 90.59^a ppm and 90.59 ppm
- Residual Nitrite, LSMean Conc × Temp [6, 17]: 107.26 ppm
- Residual Nitrite, LSMean Conc × Temp [6, 18]: 86.10 ppm
- Residual Nitrite, LSMean Conc × Temp [6, 19]: 78.41 ppm
- Residual Nitrite, LSMean main effect of Temperature [6, 20]: 84.75^a ppm and 84.75 ppm
- Residual Nitrite, LSMean main effect of Temperature [6, 21]: 79.98^ab ppm and 79.98 ppm
- Residual Nitrite, LSMean main effect of Temperature [6, 22]: 68.93^b ppm and 68.93 ppm
- Residual Nitrite, LSMean Conc × Temp [6, 24]: 171.64^cde ppm
- Residual Nitrite, LSMean Conc × Temp [6, 25]: 148.63^e ppm
- Residual Nitrite, LSMean Conc × Temp [6, 26]: 162.23^de ppm
- Residual Nitrite, LSMean Conc × Temp [6, 28]: 202.54^bc ppm
- Residual Nitrite, LSMean Conc × Temp [6, 29]: 177.54^cde ppm
- Residual Nitrite, LSMean Conc × Temp [6, 30]: 165.70^cde ppm
- Residual Nitrite, LSMean Conc × Temp [6, 32]: 249.27^a ppm
- Residual Nitrite, LSMean Conc × Temp [6, 33]: 223.86^ab ppm
- Residual Nitrite, LSMean Conc × Temp [6, 34]: 189.46^cd ppm
- Residual Nitrite, LSMean main effect of Temperature [6, 35]: 207.82^a ppm and 207.82 ppm
- Residual Nitrite, LSMean main effect of Temperature [6, 36]: 183.34^b ppm and 183.34 ppm
- Residual Nitrite, LSMean main effect of Temperature [6, 37]: 172.46^b ppm and 172.46 ppm
- Nitrite [7]: 21.27^a ppm
- Nitrite ([7]; listed as sodium nitrite): 21.27 ppm and ~18 ppm
